The results in this text go back to patent US20210380548A1, “Fused [1,2,4]Thiadiazine Derivatives Which Act as KAT Inhibitors of the MYST Family” (CTxT Pty Limited, priority 2017, published 2021).

In assay [1] the target is T1, MOZ-KAT6A (Homo sapiens, UniProt Q92794, A567V).
T1 construct: encoding amino acid residues 507 to 778 (Uniprot Q92794-1) of human KAT6A; made in house; host or cells: E. coli BL21 DE3
Put plainly: Revised Acetyltransferase Biochemical Assay, KAT6A. To be noted: Table 8 (MOZ-KAT6A), 1 μM Acetyl coenzyme A.

Assay [2] deals with T2, QKF-KAT6B (Homo sapiens, UniProt Q8WYB5).
T2 construct: purchased SignalChem K315-381BG
Put plainly: Revised Acetyltransferase Biochemical Assay, KAT6B. To be noted: 8 nM KAT6B, 1 μM AcCoA, 100 nM histone H3.1, 90 min. The text has this: KAT6B was obtained from SignalChem, catalog ID: K315-381BG

The target in assay [3] is T3, MOF-KAT8 (Homo sapiens, UniProt Q9H7Z6).
T3 sequence (Q9H7Z6 177-447): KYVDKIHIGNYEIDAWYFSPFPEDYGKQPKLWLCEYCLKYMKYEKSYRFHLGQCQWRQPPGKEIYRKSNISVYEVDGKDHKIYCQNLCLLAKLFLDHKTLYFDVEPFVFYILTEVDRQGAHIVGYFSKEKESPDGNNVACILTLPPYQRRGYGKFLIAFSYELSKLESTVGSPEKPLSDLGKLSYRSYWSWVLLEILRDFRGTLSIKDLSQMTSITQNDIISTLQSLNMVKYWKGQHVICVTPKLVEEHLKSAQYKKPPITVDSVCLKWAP
In words: Revised Acetyltransferase Biochemical Assay, KAT8.

Assay [4] has as its target T4, HBO-KAT7 (Homo sapiens, UniProt O95251).
T4 construct: encoding amino acid residues 325 to 611 (Uniprot 095251-1) of human KAT7; made in house; host or cells: E. coli BL21 DE3 RIL
In words: Acetyltransferase biochemical assay (AlphaScreen), KAT7. To be noted: Table 3 (HBO-KAT7); 0.4 μM Acetyl coenzyme A, histone H3.1, 40 nM enzyme.

For assay [5], the target named is T4, HBO-KAT7. In words: Revised Acetyltransferase Biochemical Assay, KAT7. To be noted: Table 9 (HBO-KAT7), 1 μM Acetyl coenzyme A.
Assay [6] deals with T3, MOF-KAT8. In words: Acetyltransferase biochemical assay (AlphaScreen), KAT8. To be noted: Table 4 (MOF-KAT8); 0.4 μM Acetyl coenzyme A, histone H4, 20 nM enzyme.
Assay [7] has as its target T1, MOZ-KAT6A. In words: Acetyltransferase biochemical assay (AlphaScreen), KAT6A. The settings on record: Table 2 (MOZ-KAT6A); 10 μM Acetyl coenzyme A, histone H3.1, 5 nM enzyme.
Assay [8] concerns the target T2, QKF-KAT6B. In words: Acetyltransferase biochemical assay (AlphaScreen), KAT6B. The settings on record: Table 5 (QKF-KAT6B); 0.4 μM Acetyl coenzyme A, histone H3.1, 8 nM enzyme.

T4 sequence (O95251 with tags, fused parts or gaps): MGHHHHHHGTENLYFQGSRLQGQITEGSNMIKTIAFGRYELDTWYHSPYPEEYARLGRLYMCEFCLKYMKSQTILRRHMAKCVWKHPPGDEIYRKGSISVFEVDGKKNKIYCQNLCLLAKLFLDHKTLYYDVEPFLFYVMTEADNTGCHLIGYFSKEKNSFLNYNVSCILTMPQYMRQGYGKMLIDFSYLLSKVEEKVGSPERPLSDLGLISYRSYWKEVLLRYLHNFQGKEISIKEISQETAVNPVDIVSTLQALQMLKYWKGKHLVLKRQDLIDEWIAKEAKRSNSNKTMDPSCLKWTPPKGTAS
T1 sequence (Q92794 507-778 A567V limits assumed): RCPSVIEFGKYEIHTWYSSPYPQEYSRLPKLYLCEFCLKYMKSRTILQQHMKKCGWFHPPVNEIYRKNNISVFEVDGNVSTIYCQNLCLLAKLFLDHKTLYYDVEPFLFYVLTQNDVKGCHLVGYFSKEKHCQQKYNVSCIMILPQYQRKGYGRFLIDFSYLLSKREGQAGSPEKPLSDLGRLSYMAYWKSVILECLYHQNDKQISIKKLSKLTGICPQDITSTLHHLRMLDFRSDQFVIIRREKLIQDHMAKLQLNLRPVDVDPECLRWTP
T2 sequence (Q8WYB5 whole entry): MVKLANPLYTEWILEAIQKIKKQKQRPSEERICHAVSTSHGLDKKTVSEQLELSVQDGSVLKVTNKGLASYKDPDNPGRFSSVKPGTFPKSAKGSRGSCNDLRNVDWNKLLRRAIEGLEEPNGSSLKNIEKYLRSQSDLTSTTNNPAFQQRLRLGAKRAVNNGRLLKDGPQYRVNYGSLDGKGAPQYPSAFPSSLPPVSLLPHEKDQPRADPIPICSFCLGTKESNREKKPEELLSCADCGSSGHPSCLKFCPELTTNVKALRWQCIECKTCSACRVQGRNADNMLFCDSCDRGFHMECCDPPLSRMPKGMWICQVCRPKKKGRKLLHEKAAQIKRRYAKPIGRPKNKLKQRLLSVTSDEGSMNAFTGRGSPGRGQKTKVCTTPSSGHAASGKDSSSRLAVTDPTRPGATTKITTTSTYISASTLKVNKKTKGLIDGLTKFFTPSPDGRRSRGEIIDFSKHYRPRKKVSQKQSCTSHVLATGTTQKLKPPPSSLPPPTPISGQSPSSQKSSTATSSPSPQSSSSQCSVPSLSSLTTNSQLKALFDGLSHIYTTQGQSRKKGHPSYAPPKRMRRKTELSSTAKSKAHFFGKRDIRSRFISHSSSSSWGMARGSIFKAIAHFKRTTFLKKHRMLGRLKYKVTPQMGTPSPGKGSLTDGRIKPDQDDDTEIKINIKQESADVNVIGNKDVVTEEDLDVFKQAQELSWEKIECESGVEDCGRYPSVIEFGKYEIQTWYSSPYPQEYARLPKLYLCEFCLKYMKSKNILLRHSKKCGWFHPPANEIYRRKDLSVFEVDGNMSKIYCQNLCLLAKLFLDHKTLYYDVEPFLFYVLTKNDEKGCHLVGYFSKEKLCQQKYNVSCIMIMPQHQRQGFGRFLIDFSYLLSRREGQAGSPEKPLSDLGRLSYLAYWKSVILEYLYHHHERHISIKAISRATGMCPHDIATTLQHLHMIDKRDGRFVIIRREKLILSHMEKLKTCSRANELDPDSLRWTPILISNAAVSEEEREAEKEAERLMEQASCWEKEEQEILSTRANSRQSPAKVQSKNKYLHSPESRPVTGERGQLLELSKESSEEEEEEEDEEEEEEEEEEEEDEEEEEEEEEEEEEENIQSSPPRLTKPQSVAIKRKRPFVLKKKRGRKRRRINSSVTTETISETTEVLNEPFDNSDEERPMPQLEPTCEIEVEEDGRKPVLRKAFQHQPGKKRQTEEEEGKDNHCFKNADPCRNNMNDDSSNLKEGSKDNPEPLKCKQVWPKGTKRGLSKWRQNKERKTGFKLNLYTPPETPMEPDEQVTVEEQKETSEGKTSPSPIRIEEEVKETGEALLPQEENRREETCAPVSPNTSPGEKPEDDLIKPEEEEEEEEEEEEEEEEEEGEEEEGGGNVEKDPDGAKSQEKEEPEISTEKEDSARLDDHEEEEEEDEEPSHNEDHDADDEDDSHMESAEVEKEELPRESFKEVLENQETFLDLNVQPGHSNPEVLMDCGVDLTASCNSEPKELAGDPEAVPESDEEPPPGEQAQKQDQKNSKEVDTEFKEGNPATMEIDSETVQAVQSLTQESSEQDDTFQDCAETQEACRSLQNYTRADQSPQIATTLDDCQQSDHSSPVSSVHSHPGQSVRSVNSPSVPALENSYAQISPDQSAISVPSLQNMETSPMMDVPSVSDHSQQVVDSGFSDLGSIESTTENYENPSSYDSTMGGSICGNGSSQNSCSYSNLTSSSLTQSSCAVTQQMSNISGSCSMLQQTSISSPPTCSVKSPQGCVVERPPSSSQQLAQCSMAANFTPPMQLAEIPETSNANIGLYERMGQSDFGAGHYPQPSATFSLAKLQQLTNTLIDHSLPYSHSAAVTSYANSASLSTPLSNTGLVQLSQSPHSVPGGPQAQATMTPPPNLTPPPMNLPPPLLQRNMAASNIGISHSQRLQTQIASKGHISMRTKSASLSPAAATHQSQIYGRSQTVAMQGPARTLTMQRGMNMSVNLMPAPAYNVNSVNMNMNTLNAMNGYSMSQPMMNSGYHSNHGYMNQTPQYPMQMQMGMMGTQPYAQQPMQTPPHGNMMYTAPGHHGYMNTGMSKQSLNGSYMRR

`O=C(NCCc1ccccc1-n1nccn1)C1=Nc2ccc(I)cc2S(=O)(=O)N1` [Example 60, N-(2-(2H-1,2,3-triazol-2-yl)phenethyl)-7-iodo-2H-benzo[e][1,2,4]thiadiazine-3-carboxamide 1,1-dioxide]: the IC50 against MOZ-KAT6A [1] was 10 nM; against QKF-KAT6B [2], 39 nM; on MOF-KAT8 [3] it was 24000 nM; against HBO-KAT7 [4] it was 555 nM; against HBO-KAT7 [5], 201 nM.

As to `O=C(NCC(c1ccccc1)c1ncco1)C1=Nc2ccc(Br)cc2S(=O)(=O)N1` (stereo not drawn) [Example 1, 7-Bromo-N-(2-(oxazol-2-yl)-2-phenylethyl)-2H-benzo[e][1,2,4]thiadiazine-3-carboxamide 1,1-dioxide], the 50% inhibitory concentration (IC50) worked out at 5 nM against MOZ-KAT6A [1]; 14600 nM at MOF-KAT8 [6]; 60 nM against QKF-KAT6B [2]; 4540 nM at MOF-KAT8 [3]; 63.8 nM against HBO-KAT7 [4]; 76 nM against HBO-KAT7 [5]. The half-inhibitory concentration (IC50) at MOZ-KAT6A [7] amounted to 24.1 nM.

`O=C(NCCc1ccccc1OC(F)F)C1=Nc2ccc(I)cc2S(=O)(=O)N1` [Example 91]: the IC50 turned out to be 24 nM against MOZ-KAT6A [1]; 12100 nM against MOF-KAT8 [6]; 350 nM against QKF-KAT6B [2]; 21100 nM on MOF-KAT8 [3]; 339 nM against HBO-KAT7 [4]; 74 nM at HBO-KAT7 [5]. On MOZ-KAT6A [7], the IC50 is 594 nM.

As to `O=C(NCC(c1ccccc1)c1ncco1)C1=Nc2ccccc2S(=O)(=O)N1` (stereo not drawn) [Example 46, N-(2-(oxazol-2-yl)-2-phenylethyl)-2H-benzo[e][1,2,4]thiadiazine-3-carboxamide 1,1-dioxide], the IC50 is 64 nM against MOZ-KAT6A [1]; 88200 nM on MOF-KAT8 [6]; 589 nM at QKF-KAT6B [2]; 99400 nM on MOF-KAT8 [3]; 2650 nM on HBO-KAT7 [4]; 1080 nM against HBO-KAT7 [5]. For the same compound, the IC50 was determined as 324 nM on MOZ-KAT6A [7] and 122 nM against QKF-KAT6B [8].
